The source of these data is US9580416B2, “Inhibitors of Bruton's tyrosine kinase” (PHARMACYCLICS LLC, priority 2014, dated 2017).

Molecules are shown by their SMILES.

What all share (format): biochemical
In one experiment the target is Btk (Homo sapiens, UniProt Q06187). Briefly: Btk kinase activity, TR-FRET assay. The conditions noted are these: read-out: Btk (IC50). The gist of the method:
(§1)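 Enzyme (Btk 0.5 nM; Lck 6 nM) reacted 1 h with inhibitor, ATP at Km and biotin-peptide substrate in pH 7.4 buffer, 10% DMSO. Phosphopeptide detected by Eu-p-Tyr100 antibody plus streptavidin-APC (665/615 nm). IC50 calculated from fitted Ki(app) via ATP/Km correction plus half total enzyme.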

A further experiment addresses T1, JAK3 (Homo sapiens, UniProt P52333).
T1 sequence (P52333 1-1124): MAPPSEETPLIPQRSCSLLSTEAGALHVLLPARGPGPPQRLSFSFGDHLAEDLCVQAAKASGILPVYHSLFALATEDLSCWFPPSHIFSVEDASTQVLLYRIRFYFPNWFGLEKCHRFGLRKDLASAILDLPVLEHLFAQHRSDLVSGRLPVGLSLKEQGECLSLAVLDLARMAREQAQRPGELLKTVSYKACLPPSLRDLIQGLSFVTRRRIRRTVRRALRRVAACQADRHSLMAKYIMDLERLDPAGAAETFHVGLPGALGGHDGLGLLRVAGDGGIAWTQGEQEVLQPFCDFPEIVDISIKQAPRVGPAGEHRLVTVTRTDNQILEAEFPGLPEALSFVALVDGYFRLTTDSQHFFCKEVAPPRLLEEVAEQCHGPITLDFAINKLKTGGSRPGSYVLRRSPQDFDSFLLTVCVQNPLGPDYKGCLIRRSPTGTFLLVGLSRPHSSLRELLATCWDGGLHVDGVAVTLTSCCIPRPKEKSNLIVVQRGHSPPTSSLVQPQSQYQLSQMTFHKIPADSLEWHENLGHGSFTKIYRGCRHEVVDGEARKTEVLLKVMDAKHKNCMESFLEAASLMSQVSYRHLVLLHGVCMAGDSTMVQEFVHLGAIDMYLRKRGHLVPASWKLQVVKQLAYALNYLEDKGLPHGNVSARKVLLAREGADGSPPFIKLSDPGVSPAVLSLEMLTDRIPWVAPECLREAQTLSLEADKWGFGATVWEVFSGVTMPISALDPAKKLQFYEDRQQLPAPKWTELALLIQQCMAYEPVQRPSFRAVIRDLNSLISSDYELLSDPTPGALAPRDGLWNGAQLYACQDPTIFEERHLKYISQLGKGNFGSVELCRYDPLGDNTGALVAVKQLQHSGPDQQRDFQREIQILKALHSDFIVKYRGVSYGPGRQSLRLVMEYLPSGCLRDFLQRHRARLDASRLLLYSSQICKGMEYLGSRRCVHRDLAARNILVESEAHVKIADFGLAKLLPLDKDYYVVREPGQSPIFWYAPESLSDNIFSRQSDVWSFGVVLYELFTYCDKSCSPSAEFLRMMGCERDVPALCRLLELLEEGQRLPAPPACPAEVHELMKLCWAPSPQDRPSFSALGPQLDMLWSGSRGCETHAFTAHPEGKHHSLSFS
Briefly: Inhibition of a panel of kinases, in vitro HotSpot kinase assay: JAK3. On the procedure:
(§2) The degree of inhibition of a panel of kinases is determined using the in vitro HotSpot kinase assay (purified enzymes, ^33P-ATP, an appropriate substrate and 1 uM ATP).

The next experiment deals with EGFR (Homo sapiens, UniProt P00533). The experiment in a line: Inhibition of a panel of kinases, in vitro HotSpot kinase assay: EGFR. On the procedure:
as §2

The next experiment has as its target Lck (Homo sapiens, UniProt P06239). The experiment in a line: Lck kinase activity, TR-FRET assay. The conditions noted are these: read-out: LCK (IC50). The procedure, abridged:
as §1

Sequence of Btk (Q06187 whole entry): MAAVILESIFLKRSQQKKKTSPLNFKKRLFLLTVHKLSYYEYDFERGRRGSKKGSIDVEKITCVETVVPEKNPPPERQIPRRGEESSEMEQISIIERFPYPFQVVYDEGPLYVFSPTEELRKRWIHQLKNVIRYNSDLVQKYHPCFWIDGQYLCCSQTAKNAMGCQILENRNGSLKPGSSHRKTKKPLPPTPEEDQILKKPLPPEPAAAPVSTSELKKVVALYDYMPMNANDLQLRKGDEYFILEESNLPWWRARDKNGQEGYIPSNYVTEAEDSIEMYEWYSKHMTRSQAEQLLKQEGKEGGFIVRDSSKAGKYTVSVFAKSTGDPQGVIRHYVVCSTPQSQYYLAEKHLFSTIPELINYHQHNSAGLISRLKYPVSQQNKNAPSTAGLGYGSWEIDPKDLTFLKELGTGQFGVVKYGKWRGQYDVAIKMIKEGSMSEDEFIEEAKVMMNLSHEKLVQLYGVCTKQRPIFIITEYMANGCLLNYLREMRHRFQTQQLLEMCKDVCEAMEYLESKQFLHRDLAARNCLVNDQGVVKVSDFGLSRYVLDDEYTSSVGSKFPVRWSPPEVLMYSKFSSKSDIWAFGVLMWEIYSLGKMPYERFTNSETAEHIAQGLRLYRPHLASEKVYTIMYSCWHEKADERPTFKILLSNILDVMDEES
Sequence of Lck (P06239 whole entry, species assumed): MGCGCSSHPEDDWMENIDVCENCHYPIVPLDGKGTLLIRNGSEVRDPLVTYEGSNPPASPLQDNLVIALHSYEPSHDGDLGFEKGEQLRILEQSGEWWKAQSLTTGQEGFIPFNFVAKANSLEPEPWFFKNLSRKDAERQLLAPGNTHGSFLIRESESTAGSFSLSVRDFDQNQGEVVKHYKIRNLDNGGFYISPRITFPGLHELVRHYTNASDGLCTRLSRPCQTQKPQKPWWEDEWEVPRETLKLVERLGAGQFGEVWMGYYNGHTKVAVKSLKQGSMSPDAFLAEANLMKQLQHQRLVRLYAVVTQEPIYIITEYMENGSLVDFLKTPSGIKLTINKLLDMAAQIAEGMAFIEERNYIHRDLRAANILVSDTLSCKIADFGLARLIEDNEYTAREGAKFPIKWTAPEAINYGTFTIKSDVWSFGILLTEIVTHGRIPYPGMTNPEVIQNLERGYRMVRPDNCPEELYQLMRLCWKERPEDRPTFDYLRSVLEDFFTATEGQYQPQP
Sequence of EGFR (P00533 25-1210): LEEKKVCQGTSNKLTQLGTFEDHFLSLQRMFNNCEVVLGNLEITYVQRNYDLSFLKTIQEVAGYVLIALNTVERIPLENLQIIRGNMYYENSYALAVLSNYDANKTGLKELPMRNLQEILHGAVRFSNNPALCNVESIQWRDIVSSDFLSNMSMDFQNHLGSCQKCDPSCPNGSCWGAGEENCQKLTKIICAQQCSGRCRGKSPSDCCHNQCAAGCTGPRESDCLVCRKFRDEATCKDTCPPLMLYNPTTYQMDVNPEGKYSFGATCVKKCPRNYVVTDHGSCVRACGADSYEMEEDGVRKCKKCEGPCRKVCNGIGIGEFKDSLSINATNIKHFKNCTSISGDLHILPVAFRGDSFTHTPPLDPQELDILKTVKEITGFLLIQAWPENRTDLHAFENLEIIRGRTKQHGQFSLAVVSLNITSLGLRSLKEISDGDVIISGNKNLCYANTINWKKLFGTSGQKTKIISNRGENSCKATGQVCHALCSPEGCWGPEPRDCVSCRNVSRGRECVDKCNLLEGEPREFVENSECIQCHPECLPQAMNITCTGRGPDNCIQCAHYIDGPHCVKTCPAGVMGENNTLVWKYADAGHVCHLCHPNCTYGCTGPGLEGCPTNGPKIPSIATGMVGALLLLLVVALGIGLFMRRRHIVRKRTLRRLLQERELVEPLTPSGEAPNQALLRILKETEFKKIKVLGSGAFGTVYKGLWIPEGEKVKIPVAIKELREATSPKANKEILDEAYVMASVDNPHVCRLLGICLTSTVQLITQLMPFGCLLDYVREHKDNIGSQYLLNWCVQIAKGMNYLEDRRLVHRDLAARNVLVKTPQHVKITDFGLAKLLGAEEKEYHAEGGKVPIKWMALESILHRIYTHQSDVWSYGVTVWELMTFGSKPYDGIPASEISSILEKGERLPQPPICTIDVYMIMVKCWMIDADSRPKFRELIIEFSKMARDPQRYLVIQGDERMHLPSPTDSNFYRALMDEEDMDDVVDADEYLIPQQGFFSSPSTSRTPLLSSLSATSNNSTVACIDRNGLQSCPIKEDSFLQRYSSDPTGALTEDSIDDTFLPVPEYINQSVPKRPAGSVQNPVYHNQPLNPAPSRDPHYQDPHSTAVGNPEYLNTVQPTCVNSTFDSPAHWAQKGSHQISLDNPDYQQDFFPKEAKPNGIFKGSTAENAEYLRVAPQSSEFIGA

Consider `C=CC(=O)N1CCC[C@@H](Nc2n[nH]c3nccc(Oc4ccc(C(=O)Nc5cc(C(F)(F)F)ccn5)cc4)c23)C1` [compound 203, 4-[(3-{[(3R)-1-(prop-2-enoyl)piperidin-3-yl]amino}-1H-pyrazoo[3,4-b]pyridin-4-yl)oxy]-N-[4-(trifluoromethyl)pyridin-2-yl]benzamide], for which the IC50 was below 0.1 µM on Btk, 0.1 to 1 µM against JAK3, below 0.1 µM against EGFR and 0.1 to 1 µM at Lck.
With `CNC(=O)C(=O)N1CCC[C@@H](Nc2n[nH]c3nccc(Oc4ccc(C(=O)Nc5cc(C)ccn5)cc4)c23)C1` [compound 97, 4-[(3-{[(3R)-1-[(methylcarbamoyl)carbonyl]piperidin-3-yl]amino}-1H-pyrazolo[3,4-b]pyridin-4-yl)oxy]-N-(4-methylpyridin-2-yl)benzamide], the IC50 on Btk was below 0.1 µM; at JAK3, above 10 µM; against EGFR it was 1 to 10 µM; on Lck, 0.1 to 1 µM.
On to `C=CC(=O)N1CCC[C@@H](Nc2n[nH]c3nccc(Oc4ccc(-c5ncc(C)s5)cc4)c23)C1` [compound 158], for which the IC50 at Btk is below 0.1 µM; on JAK3, 1 to 10 µM; against EGFR it was 0.1 to 1 µM; on Lck, 1 to 10 µM.
Take `CCOP(=O)(CCCC(=O)N1CCC[C@@H](Nc2n[nH]c3nccc(Oc4ccc(C(=O)Nc5cc(C)ccn5)cc4)c23)C1)OCC` [compound 271, (R)-diethyl 4-(3-(4-(4-(4-methylpyridin-2-ylcarbamoyl)phenoxy)-1H-pyrazolo[3,4-b]pyridin-3-ylamino)piperidin-1-yl)-4-oxobutylphosphonate]: the 50% inhibitory concentration (IC50) on Btk was below 0.1 µM; against JAK3, above 10 µM; on EGFR it was above 10 µM; on Lck it was 0.1 to 1 µM.
As to `Cc1ccnc(NC(=O)c2ccc(Oc3ccnc4[nH]nc(N[C@@H]5CCCN(C(=O)C6CC6)C5)c34)cc2)c1` [compound 100, 4-[(3-{[(3R)-1-cyclopropanecarbonylpiperidin-3-yl]amino}-1H-pyrazolo[3,4-b]pyridin-4-yl)oxy]-N-(4-methylpyridin-2-yl)benzamide], the IC50 at Btk was below 0.1 µM; on JAK3, above 10 µM; against EGFR, 1 to 10 µM; on Lck it was 0.1 to 1 µM.
For `C=CC(=O)N1CCC[C@@H](Nc2n[nH]c3nccc(Oc4cccc(-c5ncc(C)s5)c4)c23)C1` [compound 148], in that order: 0.1 to 1 µM, 1 to 10 µM, 0.1 to 1 µM and above 10 µM.
On to `CN1CCC(C(=O)N2CCC[C@@H](Nc3n[nH]c4nccc(Oc5ccc(C(=O)Nc6cc(C(F)(F)F)ccn6)cc5)c34)C2)CC1` [compound 204, 4-[(3-{[(3R)-1-(1-methylpiperidine-4-carbonyl)piperidin-3-yl]amino}-1H-pyrazolo[3,4-b]pyridin-4-yl)oxy]-N-[4-(trifluoromethyl)pyridin-2-yl]benzamide], for which the IC50 at Btk was below 0.1 µM; on JAK3, above 10 µM; against EGFR, 1 to 10 µM; at Lck, below 0.1 µM.
For the compound `CN(C)CCCC(=O)N1CCC[C@@H](Nc2n[nH]c3nccc(Oc4ccc(C(=O)Nc5nc6ccccc6s5)cc4)c23)C1` [compound 172], the IC50 at Btk is below 0.1 µM; against JAK3, below 0.1 µM; against EGFR it was 0.1 to 1 µM; at Lck, below 0.1 µM.
As to `CCNC(=O)N1CCC[C@@H](Nc2n[nH]c3nccc(Oc4ccc(-c5nc6ccccc6[nH]5)cc4)c23)C1` [compound 224, (3R)-3-({4-[4-(1H-1,3-benzodiazol-2-yl)phenoxy]-1H-pyrazolo[3,4-b]pyridin-3-yl}amino)-N-ethylpiperidine-1-carboxamide], the IC50 is 1 to 10 µM at Btk, above 10 µM at JAK3, above 10 µM on EGFR and 1 to 10 µM on Lck.
